Patent US20240409585A1, “MACROCYCLIC IMMUNOMODULATORS” (priority 2021, published 2024)
Numbered stars: 1 amine (or outer) side, 2 acyl side, 3 side chain; on linkers, the order of the positions; unused ones are H or OH. Bridge positions count the residues as written; N and C are the ends. Square brackets hold non-standard residues; d marks the D form. Peptide text beside a SMILES is read from it. * marks the point of attachment. ξ: configuration not given here. X15 = COC(=O)c1ccc(NS(=O)(=O)NC(=O)C[C@H](N[*:1])C(=O)[*:2])cc1; X46 = COCc1ccc(-c2ccc(C[C@H](N[*:1])C(=O)[*:2])cc2)cc1; Phe(3-CF3) = N[C@@H](Cc1cccc(C(F)(F)F)c1)C(=O)O; Ala(morpholin-4-yl) = N[C@@H](CN1CCOCC1)C(=O)O; Phe(4-CONH2) = NC(=O)c1ccc(C[C@H](N)C(=O)O)cc1; Phe(4-COOH) = N[C@@H](Cc1ccc(C(=O)O)cc1)C(=O)O; X23 = O=C([C@H](Cc1cc2ccccc2cn1)N[*:1])[*:2]; Bip = N[C@@H](Cc1ccc(-c2ccccc2)cc1)C(=O)O; Phe(3-Me) = Cc1cccc(C[C@H](N)C(=O)O)c1; Phe(4-F) = N[C@@H](Cc1ccc(F)cc1)C(=O)O; Val(3-OH) = CC(C)(O)[C@H](N)C(=O)O; 3Pal = N[C@@H](Cc1cccnc1)C(=O)O; 4Pal = N[C@@H](Cc1ccncc1)C(=O)O; Cha = N[C@@H](CC1CCCCC1)C(=O)O; Cit = NC(=O)NCCC[C@H](N)C(=O)O; Ile(3ξ) = CCC(C)[C@H](N)C(=O)O; Thr(3ξ) = CC(O)[C@H](N)C(=O)O; dPip = O=C(O)[C@H]1CCCCN1; Carboxymethyl = O=C(O)C*; NMeA = CN[C@@H](C)C(=O)O; Orn = NCCC[C@H](N)C(=O)O; Dab = NCC[C@H](N)C(=O)O; Dap = NC[C@H](N)C(=O)O

Target: T1, PE-labeled human PD-L1-Ig binding to Jurkat cell line over-expressing human PD-1 (Jurkat-PD-1) (Homo sapiens, UniProt Q15116)
T1 construct: expressed in transfected cells; host or cells: Jurkat
Experiment: Jurkat-PD-1 Cell Binding High-Content Screening Assay (CBA): Method 1
Details: Jurkat-PD-1 cells, PE-labeled PD-L1-Ig; μM; read-out: CBA Method 1 μM

T1 sequence (Q15116 25-288): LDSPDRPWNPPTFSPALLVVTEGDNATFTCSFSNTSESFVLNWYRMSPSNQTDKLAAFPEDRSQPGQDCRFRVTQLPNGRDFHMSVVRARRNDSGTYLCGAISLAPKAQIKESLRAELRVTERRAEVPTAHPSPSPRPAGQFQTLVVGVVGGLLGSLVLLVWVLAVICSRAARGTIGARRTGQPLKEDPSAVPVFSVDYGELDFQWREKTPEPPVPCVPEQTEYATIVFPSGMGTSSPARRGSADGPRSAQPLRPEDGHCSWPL

Row | Compound | IC50
1 | COC(=O)c1ccc(NS(=O)(=O)NC(=O)C[C@@H]2NC(=O)[C@H](Cc3ccc(C(=O)O)cc3)NC(=O)[C@H](CN3CCOCC3)NC(=O)CSC[C@@H](C(=O)N[C@@H](CCN)C(N)=O)NC(=O)[C@H](CCCN)NC(=O)[C@H](C(C)C)NC(=O)[C@H](CC3CCCCC3)NC(=O)[C@H](CCN)NC(=O)[C@@H](CC(C)C)NC(=O)[C@H](C)N(C)C(=O)[C@H](CCC(N)=O)NC(=O)[C@H](Cc3ccc(-c4ccccc4)cc3)NC(=O)[C@H](Cc3ccc(C(=O)O)cc3)NC(=O)[C@H](Cc3cccc(C(F)(F)F)c3)NC2=O)cc1 [Example 5083] ({CH2CO}-[Ala(morpholin-4-yl)][Phe(4-COOH)][X15][Phe(3-CF3)][Phe(4-COOH)][Bip]Q[NMeA][dL][Dab][Cha]V[Orn]C[Dab]-NH2; thioether N-14) | 0.355 µM

Same assay, conditions: Jurkat-hPD-1 cells, PE-labeled PD-L1-Ig 20 nM final; read-out: Jurkat HPDL1 PD1 IC50 (uM) (Method 1)

Row | Compound | IC50
2 | CC(C)C[C@@H]1NC(=O)[C@H](CCN)NC(=O)[C@@H](CC(C)C)NC(=O)[C@H](C)N(C)C(=O)[C@H](CCCNC(N)=O)NC(=O)[C@H](Cc2ccc(-c3ccccc3)cc2)NC(=O)[C@H](C(C)C)NC(=O)[C@H](Cc2c[nH]c3ccccc23)NC(=O)[C@H](CC(=O)O)NC(=O)[C@H](Cc2ccc(O)cc2)NC(=O)[C@H](Cc2ccccc2)NC(=O)CSC[C@@H](C(=O)N[C@@H](C)C(N)=O)NC(=O)[C@H](C(C)O)NC(=O)[C@H](C(C)C)NC1=O (stereo partly drawn) [Compound 2033] ({CH2CO}-FYDWV[Bip][Cit][NMeA][dL][Dab]LV[Thr(3ξ)]CA-NH2; thioether N-14) | 0.03 µM
3 | CC(C)C[C@@H]1NC(=O)[C@H](CC(N)=O)NC(=O)[C@@H](CC(C)C)NC(=O)[C@H](C)N(C)C(=O)[C@H](CCCNC(N)=O)NC(=O)[C@H](Cc2ccc(-c3ccccc3)cc2)NC(=O)[C@H](C(C)C)NC(=O)[C@H](Cc2c[nH]c3ccccc23)NC(=O)[C@H](CC(=O)O)NC(=O)[C@H](Cc2ccc(O)cc2)NC(=O)[C@H](Cc2ccccc2)NC(=O)CSC[C@@H](C(=O)N[C@@H](C)C(=O)N[C@@H](CCN)C(=O)O)NC(=O)[C@H](CO)NC(=O)[C@H](C(C)C)NC1=O [Compound 2000] ({CH2CO}-FYDWV[Bip][Cit][NMeA][dL]NLVSCA[Dab]-OH; thioether N-14) | 0.02 µM
4 | Cc1cccc(C[C@@H]2NC(=O)[C@H](CC(=O)O)NC(=O)[C@H](Cc3ccc(OCC(=O)O)cc3)NC(=O)[C@H](Cc3ccncc3)NC(=O)CSC[C@@H](C(=O)N[C@@H](CO)C(N)=O)NC(=O)[C@H](CO)NC(=O)[C@H](C(C)(C)O)NC(=O)[C@H](CC3CCCCC3)NC(=O)[C@H](CCN)NC(=O)[C@@H](CC(C)C)NC(=O)[C@H](C)N(C)C(=O)[C@H](Cc3ccc(C(=O)O)cc3)NC(=O)[C@H](Cc3ccc(-c4ccccc4)cc3)NC(=O)[C@H](Cc3ccc(C(N)=O)cc3)NC2=O)c1 [Compound 2180] ({CH2CO}-[4Pal]Y(Carboxymethyl)D[Phe(3-Me)][Phe(4-CONH2)][Bip][Phe(4-COOH)][NMeA][dL][Dab][Cha][Val(3-OH)]SCS-NH2; thioether N-14) | 0.02 µM
5 | Cc1cccc(C[C@@H]2NC(=O)[C@H](CC(=O)O)NC(=O)[C@H](Cc3ccc(C(=O)O)cc3)NC(=O)[C@H](Cc3ccc(F)cc3)NC(=O)CSC[C@@H](C(=O)N[C@@H](CCN)C(N)=O)NC(=O)[C@H](CCC(=O)O)NC(=O)[C@H](C(C)O)NC(=O)[C@H](CC3CCCCC3)NC(=O)[C@H](CCN)NC(=O)[C@@H](CC(C)C)NC(=O)[C@H](C)N(C)C(=O)[C@H](Cc3ccc(C(=O)O)cc3)NC(=O)[C@H](Cc3ccc(-c4ccccc4)cc3)NC(=O)[C@H](Cc3ccc(C(=O)O)cc3)NC2=O)c1 (stereo partly drawn) [Compound 2209] ({CH2CO}-[Phe(4-F)][Phe(4-COOH)]D[Phe(3-Me)][Phe(4-COOH)][Bip][Phe(4-COOH)][NMeA][dL][Dab][Cha][Thr(3ξ)]EC[Dab]-NH2; thioether N-14) | 0.01 µM
6 | CC(C)C[C@H]1NC(=O)[C@H](C)N(C)C(=O)[C@H](C(C)C)NC(=O)[C@H](Cc2ccc(-c3ccccc3)cc2)NC(=O)[C@H](C(C)C)NC(=O)[C@H](Cc2c[nH]c3ccccc23)NC(=O)[C@H](CC(=O)O)NC(=O)[C@H](Cc2ccc(O)cc2)NC(=O)[C@H](CN)NC(=O)CSC[C@@H](C(=O)N[C@@H](C)C(N)=O)NC(=O)[C@H]([C@@H](C)O)NC(=O)[C@H](C(C)C)NC(=O)[C@H](CC2CCCCC2)NC(=O)[C@H](CCN)NC1=O [Compound 1506] ({CH2CO}-[Dap]YDWV[Bip]V[NMeA][dL][Dab][Cha]VTCA-NH2; thioether N-14) | 0.02 µM
7 | CCC(C)[C@@H]1NC(=O)[C@H](Cc2ccc(-c3ccccc3)cc2)NC(=O)[C@H](CC(C)C)NC(=O)[C@H](Cc2c[nH]c3ccccc23)NC(=O)[C@H](CC(=O)O)NC(=O)[C@H](Cc2ccc(C(=O)O)cc2)NC(=O)[C@H](Cc2ccc(OCC(=O)O)cc2)NC(=O)CSC[C@@H](C(=O)N[C@@H](CCN)C(N)=O)NC(=O)[C@H](CO)NC(=O)[C@H](C(C)C)NC(=O)[C@H](CC2CCCCC2)NC(=O)[C@H](CCN)NC(=O)[C@@H](CC(C)C)NC(=O)[C@H](C)N(C)C1=O (stereo partly drawn) [Compound 1910] ({CH2CO}-Y(Carboxymethyl)[Phe(4-COOH)]DWL[Bip][Ile(3ξ)][NMeA][dL][Dab][Cha]VSC[Dab]-NH2; thioether N-14) | 0.02 µM
8 | CC(C)C[C@@H]1NC(=O)[C@H](CCN)NC(=O)[C@@H](CC(C)C)NC(=O)[C@H]2CCCCN2C(=O)[C@H](C(C)C)NC(=O)[C@H](Cc2ccc(-c3ccccc3)cc2)NC(=O)[C@H](C(C)C)NC(=O)[C@H](Cc2c[nH]c3ccccc23)NC(=O)[C@H](CC(=O)O)NC(=O)[C@H](Cc2ccc(O)cc2)NC(=O)[C@H](CC(N)=O)NC(=O)CSC[C@@H](C(=O)N[C@@H](C)C(N)=O)NC(=O)[C@H]([C@@H](C)O)NC(=O)[C@H](C(C)C)NC1=O [Compound 1268] ({CH2CO}-NYDWV[Bip]V[dPip][dL][Dab]LVTCA-NH2; thioether N-14) | 0.11 µM
9 | CC(C)C[C@@H]1NC(=O)[C@H](CCCNC(=N)N)NC(=O)[C@@H](CC(C)C)NC(=O)[C@H](C)N(C)C(=O)[C@H](CCCNC(=N)N)NC(=O)[C@H](Cc2ccc(-c3ccccc3)cc2)NC(=O)[C@H](C(C)C)NC(=O)[C@H](Cc2c[nH]c3ccccc23)NC(=O)[C@H](CC(=O)O)NC(=O)[C@H](Cc2ccc(O)cc2)NC(=O)[C@H](CC(N)=O)NC(=O)CSC[C@@H](C(=O)NCC(N)=O)NC(=O)[C@H]([C@@H](C)O)NC(=O)[C@H](C(C)C)NC1=O [Compound 1244] ({CH2CO}-NYDWV[Bip]R[NMeA][dL]RLVTCG-NH2; thioether N-14) | 0.04 µM
10 | CC(C)C[C@@H]1NC(=O)[C@H](CCN)NC(=O)[C@@H](CC(C)C)NC(=O)[C@H](C)N(C)C(=O)[C@H](CCCNC(N)=O)NC(=O)[C@H](Cc2ccc(-c3ccccc3)cc2)NC(=O)[C@H](C(C)C)NC(=O)[C@H](Cc2c[nH]c3ccccc23)NC(=O)[C@H](CC(=O)O)NC(=O)[C@H](Cc2cccnc2)NC(=O)[C@H](Cc2cccnc2)NC(=O)CSC[C@@H](C(=O)N[C@@H](C)C(N)=O)NC(=O)[C@H]([C@@H](C)O)NC(=O)[C@H](C(C)C)NC1=O [Compound 1339] ({CH2CO}-[3Pal][3Pal]DWV[Bip][Cit][NMeA][dL][Dab]LVTCA-NH2; thioether N-14) | 0.05 µM
11 | CCC(C)[C@@H]1NC(=O)[C@H](Cc2ccc(-c3ccccc3)cc2)NC(=O)[C@H](C(C)C)NC(=O)[C@H](Cc2c[nH]c3ccccc23)NC(=O)[C@H](CC(=O)O)NC(=O)[C@H](Cc2ccc(O)cc2)NC(=O)[C@H](Cc2ccncc2)NC(=O)CSC[C@@H](C(=O)N[C@@H](CC(=O)O)C(=O)N[C@@H](CCN)C(=O)O)NC(=O)[C@H](C(C)O)NC(=O)[C@H](C(C)C)NC(=O)[C@H](CC2CCCCC2)NC(=O)[C@H](CC(N)=O)NC(=O)[C@@H](CC(C)C)NC(=O)[C@H](C)N(C)C1=O (stereo partly drawn) [Compound 2001] ({CH2CO}-[4Pal]YDWV[Bip][Ile(3ξ)][NMeA][dL]N[Cha]V[Thr(3ξ)]CD[Dab]-OH; thioether N-14) | 0.11 µM
12 | CC(C)C[C@@H]1NC(=O)[C@H](CCCNC(=N)N)NC(=O)[C@@H](CC(C)C)NC(=O)[C@H]2CCCN2C(=O)[C@H](CCCNC(=N)N)NC(=O)[C@H](Cc2ccc(-c3ccccc3)cc2)NC(=O)[C@H](C(C)C)NC(=O)[C@H](Cc2c[nH]c3ccccc23)NC(=O)[C@H](CC(=O)O)NC(=O)[C@H](Cc2ccc(O)cc2)NC(=O)[C@H](CC(N)=O)NC(=O)CSC[C@@H](C(=O)N[C@@H](C)C(N)=O)NC(=O)[C@H]([C@@H](C)O)NC(=O)[C@H](C(C)C)NC1=O [Compound 1214] ({CH2CO}-NYDWV[Bip]R[dP][dL]RLVTCA-NH2; thioether N-14) | 0.05 µM
13 | COCc1ccc(-c2ccc(C[C@@H]3NC(=O)[C@H](C(C)C)NC(=O)[C@H](Cc4c[nH]c5ccccc45)NC(=O)[C@H](CC(=O)O)NC(=O)[C@H](Cc4ccc(O)cc4)NC(=O)[C@H](CC(N)=O)NC(=O)CSC[C@@H](C(=O)N[C@@H](C)C(N)=O)NC(=O)[C@H]([C@@H](C)O)NC(=O)[C@H](C(C)C)NC(=O)[C@H](CC(C)C)NC(=O)[C@H](CCN)NC(=O)[C@@H](CC(C)C)NC(=O)[C@H](C)N(C)C(=O)[C@H](CCCNC(=N)N)NC3=O)cc2)cc1 [Compound 1205] ({CH2CO}-NYDWV[X46]R[NMeA][dL][Dab]LVTCA-NH2; thioether N-14) | 0.81 µM
14 | CC(C)C[C@@H]1NC(=O)[C@H](CCN)NC(=O)[C@@H](CC(C)C)NC(=O)[C@H](C)N(C)C(=O)[C@H](CCCNC(N)=O)NC(=O)[C@H](Cc2ccc(-c3ccccc3)cc2)NC(=O)[C@H](C(C)C)NC(=O)[C@H](Cc2c[nH]c3ccccc23)NC(=O)[C@H](CC(=O)O)NC(=O)[C@H](Cc2ccc(O)cc2)NC(=O)[C@H](Cc2cc3ccccc3cn2)NC(=O)CSC[C@@H](C(=O)N[C@@H](C)C(N)=O)NC(=O)[C@H](C(C)O)NC(=O)[C@H](C(C)C)NC1=O (stereo partly drawn) [Compound 2035] ({CH2CO}-[X23]YDWV[Bip][Cit][NMeA][dL][Dab]LV[Thr(3ξ)]CA-NH2; thioether N-14) | 0.04 µM
